Laboratory results reported in patent US10077288B2, “Hydroxystatin derivatives for the treatment of arthrosis” (Merck Patent GmbH, priority 2012, dated 2018).

Legend:
[1] = target: T1, cathepsin D isolated from the human liver (Homo sapiens, UniProt P07339); assay: In-vitro fluorescence assay for identification of cathepsin D inhibitors; assay type: biochemical; conditions: human liver cathepsin D 1.4 nM, pH 5.5; read-out: CatD assay IC50-(M)
T1 construct: cathepsin D isolated from the human liver (Sigma-Aldrich); purchased Sigma-Aldrich; host or cells: human liver (tissue-derived, not recombinant)
T1 sequence (P07339 65-161 limits assumed): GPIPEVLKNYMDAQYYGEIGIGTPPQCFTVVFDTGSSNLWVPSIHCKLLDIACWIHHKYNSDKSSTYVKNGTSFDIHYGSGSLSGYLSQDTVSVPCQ
T1 sequence (P07339 169-412 limits assumed): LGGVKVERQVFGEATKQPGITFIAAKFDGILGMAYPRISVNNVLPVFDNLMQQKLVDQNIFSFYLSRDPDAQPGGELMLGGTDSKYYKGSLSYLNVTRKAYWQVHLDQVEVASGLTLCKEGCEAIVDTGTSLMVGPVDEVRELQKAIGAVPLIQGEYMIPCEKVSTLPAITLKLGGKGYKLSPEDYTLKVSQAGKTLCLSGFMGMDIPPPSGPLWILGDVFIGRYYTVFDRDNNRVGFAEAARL
Procedure, shortened: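 Continuous FRET assay: human liver cathepsin D (1.4 nM final) preincubated 10 min at room temperature with serially diluted compound in 100 mM sodium acetate, 1.25% DMSO, 0.25% Chaps, pH 5.5. Started with 5 μM MCA-GKPILFFRLK(Dnp)d-R-NH2; fluorescence increase (ex 340/em 450 nm) over 60 min at room temperature compared with no-compound control.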

[2] = Stability in bovine synovial fluid; assay type: in vitro ADME; conditions: 1 μM, up to 48 h at 37° C.
Description: EXAMPLE 7: STABILITY OF THE COMPOUNDS ACCORDING TO THE INVENTION IN BOVINE SYNOVIAL FLUID
In the preparation of bovine explants (for the diffusion chamber or other assays), either cow hoof (metacarpal joints) or cow knee is used. The synovial fluid can be obtained from both joints. To this end, the synovial fluid is carefully removed from the open joint using a 10 ml syringe and a cannula and transferred into prepared 2 ml Eppendorf vessels. The Eppendorf vessels are labelled depending on the animal (cow passport is available). […] If this is the case, the synovial fluid will become a reddish colour and must consequently be discarded. The synovial fluid is basically highly viscous and clear to yellowish in colour. The removal together with a macroscopic analysis of the synovial fluid is documented.
In order to check the stability of individual compounds, a pool of four different bovine synovial fluids is mixed. To this end, about 1 ml per SF is used. The mixture is prepared directly in a 5 ml glass vessel. The SFs are mixed thoroughly, but carefully. No air bubbles or foam should form. To this end, a vortex unit is used at the lowest speed. The compounds to be tested are tested in an initial concentration (unless required otherwise) of 1 μM. After addition of the substance, the batch is again mixed thoroughly and carefully. For visual monitoring, all SF batches are photographed, and the pictures are filed in the eLabBio file for the corresponding experiment. […] The batches are incubated in the incubator for 48 h at 37° C. and 7.5% CO2.
The sampling is carried out after the pre-agreed times (unless required otherwise, see below). 200 μl of the SF are removed from the mixture per time and transferred directly into a 0.5 ml “low-binding” Eppendorf vessel. […]
The concentrations measured (ng/ml) are plotted against the time in a graph (GraphPad Prism®). The percentage stability of the substance is determined here. […]
All compounds measured remained stable (see Table 2 in Example 1).

IC50 [1] [M]	Stability in synovial fluid [2]	Structure (SMILES)
1.2e-08	stable	CC[C@H](C)[C@H](NC(=O)C[C@H](O)[C@H](Cc1ccccc1)NC(=O)[C@@H](NC(=O)Cc1cccc(OC)c1)C(C)C)C(=O)N[C@H](C(=O)O)C(C)C [Compound 20, (S)-2-[(2S,3S)-2-((3S,4S)-3-hydroxy-4-{(S)-2-[2-(3-methoxyphenyl)-acetylamino]-3-methylbutyrylamino}-5-phenylpentanoylamino)-3-methylpentanoylamino]-3-methylbutyric acid]
3.41e-08	stable	CC[C@H](C)[C@H](NC(=O)C[C@H](O)[C@H](Cc1ccccc1)NC(=O)[C@@H](NC(=O)CCCc1ccccc1)C(C)C)C(=O)N[C@H](C(=O)O)C(C)C [Compound 5, (S)-2-((2S,3S)-2-{(3S,4S)-3-hydroxy-4-[(S)-3-methyl-2-(4-phenyl-butyrylamino)butyrylamino]-5-phenylpentanoylamino}-3-methylpentanoylamino)-3-methylbutyric acid]
3e-08	stable	CC[C@H](C)[C@H](NC(=O)C[C@H](O)[C@H](Cc1ccccc1)NC(=O)[C@@H](NC(=O)CCc1ccccc1)C(C)C)C(=O)N[C@H](C(=O)O)C(C)C [Compound 4, (S)-2-((2S,3S)-2-{(3S,4S)-3-hydroxy-4-[(S)-3-methyl-2-(3-phenyl-propionylamino)butyrylamino]-5-phenylpentanoylamino}-3-methylpentanoylamino)-3-methylbutyric acid]
